[invAb] = inverted abasic unit; m = 2'-O-methyl; r = 2'-OH (RNA); f = 2'-fluoro
Assays:
STAT6 mRNA [1] = assay: STAT6 siNA screen and dose response in human A549 cells, STAT6 mRNA by quantitative RT-PCR (Taqman); assay type: cell-based; details: human A549 cells, 10 nM siNA, 24 hrs, normalized to GAPDH and non-targeting control, mean ± S.D., n = 3
How it was run: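 A549 cells were transfected with siNA–RNAiMax complexes at a final 10 nM siNA and incubated 24 h without a medium change. STAT6 mRNA was measured by TaqMan qRT-PCR on cell lysates. Knock-down was calculated by the comparative Ct (ΔΔCt) method against the non-targeting control siNA, with relative expression taken as 2^−ΔΔCt.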

STAT6 mRNA [2] = assay: STAT6 siNA screen in mouse NIH 3T3 cells, STAT6 mRNA by quantitative RT-PCR (Taqman); assay type: cell-based; details: mouse NIH3T3 cells, 10 nM siNA, 24 hrs, normalized to GAPDH and non-targeting control, n = 2
How it was run: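 NIH 3T3 cells, 5000/well, transfected after 24 h with siNA (10 nM final) via RNAiMax and harvested 24 h later. STAT6 mRNA quantified by TaqMan RT-qPCR with GAPDH; knock-down by comparative Ct (2^−ΔΔCt) against non-targeting control siNA.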

| Substance | % KD STAT6 (STAT6 mRNA [1]) [%] | % KD STAT6 (STAT6 mRNA [2]) [%] |
| --- | --- | --- |
| 30013-DC: STAT6 siNA duplex; sense SEQ ID NO: 90, antisense SEQ ID NO: 91; target CAUGGUGCCACCUUAUGAU, site 2280 (sense CAUGGUGCCACCUUAUGAUTT; antisense AUCAUAAGGUGGCACCAUGUU; sense: DNA at AGT, 2'-fluoro at CU, [invAb] at 5' end, 3' end, backbone not given here; antisense: sugars from the 5' end rrrmfmmmmfmmfmffmfmmm, backbone not given here) [STAT6 siNA duplex; target CAUGGUGCCACCUUAUGAU, site 2280] | 19.6 ± 13.6 | 46.1 ± 2.2 |
| 30003-DC: STAT6 siNA duplex; sense SEQ ID NO: 70, antisense SEQ ID NO: 71; target CGUGGAAAGGGACCAACCA, site 2218 (sense CGUGGAAAGGGACCAACCATT; antisense UGGUUGGUCCCUUUCCACGUU; sense: DNA at AGT, 2'-fluoro at CU, [invAb] at 5' end, 3' end, backbone not given here; antisense: sugars from the 5' end rrrffmmfffffffffmfmmm, backbone not given here) [STAT6 siNA duplex; target CGU…, site 2218] | −11.1 ± 23.2 | −22.6 ± 6.6 |
| 30029-DC: STAT6 siNA duplex; sense SEQ ID NO: 122, antisense SEQ ID NO: 123; target GUGUCCUGGACCUCACCAA, site 1830 (sense GUGUCCUGGACCUCACCAATT; antisense UUGGUGAGGUCCAGGACACUU; sense: DNA at AGT, 2'-fluoro at CU, [invAb] at 5' end, 3' end, backbone not given here; antisense: sugars from the 5' end rrrmfmmmmfffmmmmfmfmm, backbone not given here) [STAT6 siNA duplex; target GUGUCCUGGACCUCACCAA, site 1830] | 13.2 ± 7.8 | −17.5 ± 12.8 |
| 30025-DC: STAT6 siNA duplex; sense SEQ ID NO: 114, antisense SEQ ID NO: 115; target AACGCUGUCUCCGGAGCUA, site 1848 (sense AACGCUGUCUCCGGAGCUATT; antisense UAGCUCCGGAGACAGCGUUUU; sense: DNA at AGT, 2'-fluoro at CU, [invAb] at 5' end, 3' end, backbone not given here; antisense: sugars from the 5' end rrrffffmmmmmfmmfmffmm, backbone not given here) [STAT6 siNA duplex; target AACGCUGUCUCCGGAGCUA, site 1848] | 48.1 ± 7.5 | 34.2 ± 1.8 |
| 30006-DC: STAT6 siNA duplex; sense SEQ ID NO: 76, antisense SEQ ID NO: 77; target CCACUAUCCUGUGGGACAA, site 1542 (sense CCACUAUCCUGUGGGACAATT; antisense UUGUCCCACAGGAUAGUGGUU; sense: DNA at AGT, 2'-fluoro at CU, [invAb] at 5' end, 3' end, backbone not given here; antisense: sugars from the 5' end rrrffffmfmmmmfmmfmmmm, backbone not given here) [STAT6 siNA duplex; target CCACUAUCCUGUGGGACAA, site 1542] | 72.9 ± 1.7 | −27.4 ± 8.5 |
| 30002-DC: STAT6 siNA duplex; sense SEQ ID NO: 68, antisense SEQ ID NO: 69; target GAUAGAAACUCCUGCUAAU, site 766 (sense GAUAGAAACUCCUGCUAAUTT; antisense AUUAGCAGGAGUUUCUAUCUU; sense: DNA at AGT, 2'-fluoro at CU, [invAb] at 5' end, 3' end, backbone not given here; antisense: sugars from the 5' end rrrmmfmmmmmfffffmffmm, backbone not given here) [STAT6 siNA duplex; target GAUAGAAACUCCUGCUAAU, site 766] | 55.9 ± 9.4 | −22.3 ± 3.5 |
| 30004-DC: STAT6 siNA duplex; sense SEQ ID NO: 72, antisense SEQ ID NO: 73; target GCCUUCUUAUGACCUUGGA, site 2272 (sense GCCUUCUUAUGACCUUGGATT; antisense UCCAAGGUCAUAAGAAGGCUU; sense: DNA at AGT, 2'-fluoro at CU, [invAb] at 5' end, 3' end, backbone not given here; antisense: sugars from the 5' end rrrmmmmffmfmmmmmmmfmm, backbone not given here) [STAT6 siNA duplex; target GCCUUCUUAUGACCUUGGA, site 2272] | 3.1 ± 19.6 | −12.8 ± 9.1 |
| 30000-DC: STAT6 siNA duplex; sense SEQ ID NO: 64, antisense SEQ ID NO: 65; target CACAUACAGAGCUCUCUGA, site 3114 (sense CACAUACAGAGCUCUCUGATT; antisense UCAGAGAGCUCUGUAUGUGUU; sense: DNA at AGT, 2'-fluoro at CU, [invAb] at 5' end, 3' end, backbone not given here; antisense: sugars from the 5' end rrrmmmmmffffmfmfmfmmm, backbone not given here) [STAT6 siNA duplex; target CACAUACAGAGCUCUCUGA, site 3114] | 40.5 ± 12.5 | −21.9 ± 5.7 |
| 30014-DC: STAT6 siNA duplex; sense SEQ ID NO: 92, antisense SEQ ID NO: 93; target GGCCUUUCAGCACCGCUGU, site 1755 (sense GGCCUUUCAGCACCGCUGUTT; antisense ACAGCGGUGCUGAAAGGCCUU; sense: DNA at AGT, 2'-fluoro at CU, [invAb] at 5' end, 3' end, backbone not given here; antisense: sugars from the 5' end rrrmfmmfmffmmmmmmffmm, backbone not given here) [STAT6 siNA duplex; target GGCCUUU…UGU, site 1755] | −0.4 ± 17.4 | 30.6 ± 2.8 |
| 29998-DC: STAT6 siNA duplex; sense SEQ ID NO: 60, antisense SEQ ID NO: 61; target CUUCUUAUGACCUUGGAAU, site 2274 (sense CUUCUUAUGACCUUGGAAUTT; antisense AUUCCAAGGUCAUAAGAAGUU; sense: DNA at AGT, 2'-fluoro at CU, [invAb] at 5' end, 3' end, backbone not given here; antisense: sugars from the 5' end rrrffmmmmffmfmmmmmmmm, backbone not given here) [STAT6 siNA duplex; target CUUCUUAUGACCUUGGAAU, site 2274] | 32.5 ± 3.5 | −3.8 ± 9.2 |
| 29995-DC: STAT6 siNA duplex; sense SEQ ID NO: 54, antisense SEQ ID NO: 55; target CAGGAUGGCUCUCCACAGA, site 2009 (sense CAGGAUGGCUCUCCACAGATT; antisense UCUGUGGAGAGCCAUCCUGUU; sense: DNA at AGT, 2'-fluoro at CU, [invAb] at 5' end, 3' end, backbone not given here; antisense: sugars from the 5' end rrrmfmmmmmmffrffffmmm, backbone not given here) [STAT6 siNA duplex; target CAGGAUGGCUCUCCACAGA, site 2009] | 20.4 ± 5.1 | −6.6 ± 1.3 |
| 30009-DC: STAT6 siNA duplex; sense SEQ ID NO: 82, antisense SEQ ID NO: 83; target GCUUUGCUCAGAUGUGACU, site 2538 (sense GCUUUGCUCAGAUGUGACUTT; antisense AGUCACAUCUGAGCAAAGCUU; sense: DNA at AGT, 2'-fluoro at CU, [invAb] at 5' end, 3' end, backbone not given here; antisense: sugars from the 5' end rrrfmfmfffmmmfmmmmfmm, backbone not given here) [STAT6 siNA duplex; target GCUUUGCUCAGAUGUGACU, site 2538] | 63.5 ± 4.6 | 72.7 ± 5.4 |
| 29996-DC: STAT6 siNA duplex; sense SEQ ID NO: 56, antisense SEQ ID NO: 57; target GCACCAUCUUGCAACACAU, site 495 (sense GCACCAUCUUGCAACACAUTT; antisense AUGUGUUGCAAGAUGGUGCUU; sense: DNA at AGT, 2'-fluoro at CU, [invAb] at 5' end, 3' end, backbone not given here; antisense: sugars from the 5' end rrrfmffmfmmmmfmmfmfmm, backbone not given here) [STAT6 siNA duplex; target GCACCAUCUUGCAACACAU, site 495] | 49.5 ± 5.5 | −10.9 ± 0.1 |
| 29992-DC: STAT6 siNA duplex; sense SEQ ID NO: 48, antisense SEQ ID NO: 49; target CUGAGAACCCUCGUCACCA, site 1064 (sense CUGAGAACCCUCGUCACCATT; antisense UGGUGACGAGGGUUCUCAGUU; sense: DNA at AGT, 2'-fluoro at CU, [invAb] at 5' end, 3' end, backbone not given here; antisense: sugars from the 5' end rrrfmmfmmmmmfffffmmmm, backbone not given here) [STAT6 siNA duplex; target CUGAGAACCCUCGUCACCA, site 1064] | 51.2 ± 0.4 | −0.5 ± 1 |

From patent US20120035247A1, “RNA Interference Mediated Inhibition of Signal Transducer and Activator of Transcription 6 (STAT6) Gene Expression Using Short Interfering Nucleic Acid (siNA)” (Merck Sharp & Dohme Corp., priority 2009, published 2012)
